Experimental data reported in PubChem BioAssay (NCI).
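Method: 48-hour compound exposure of cells in 96-well plates, five concentrations, linear interpolation of endpoints. TGI denotes the concentration required for complete inhibition of growth.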

Assays:
Assay in all cases: inhibition of tumour cell growth, NCI panel, 48 h
[1] = system: SW-620 colon
[2] = system: A549 NSCLC
[3] = system: HT29 colon
[4] = system: HCT-15 colon
[5] = system: DMS 114 small cell lung
[6] = system: OVCAR-5 ovarian
[7] = system: DLD-1 colon
[8] = system: TK-10 renal
[9] = system: RXF-631 renal
[10] = system: COLO 205 colon
[11] = system: SNB-75 CNS
[12] = system: K-562 leukemia
[13] = system: ACHN renal
[14] = system: RXF 393 renal
[15] = system: OVCAR-4 ovarian
[16] = system: NCI-H23 lung
[17] = system: HOP-62 NSCLC
[18] = system: A498 renal
[19] = system: OVCAR-8 ovarian
[20] = system: HOP-92 NSCLC
[21] = system: 786-0 renal
[22] = system: LXFL 529 NSCLC
[23] = system: SK-MEL-5 melanoma
[24] = system: NCI-H226 lung
[25] = system: UACC-257 melanoma
[26] = system: SK-OV-3 ovarian
[27] = system: OVCAR-3 ovarian
[28] = system: KM20L2 colon
[29] = system: SNB-78 CNS
[30] = system: SF-295 CNS
[31] = system: SK-MEL-28 melanoma
[32] = system: HCC-2998 colon
[33] = system: SF-268 CNS
[34] = system: LOX IMVI melanoma
[35] = system: UACC-62 melanoma
[36] = system: EKVX NSCLC
[37] = system: DMS 273 small cell lung
[38] = system: HOP-18 NSCLC
[39] = system: NCI-H522 lung
[40] = system: U251 CNS
[41] = system: SK-MEL-2 melanoma
[42] = system: CCRF-CEM leukemia
[43] = system: SNB-19 CNS
[44] = system: MOLT-4 leukemia
[45] = system: M19-MEL melanoma
[46] = system: SR leukemia
[47] = system: HCT-116 colon
[48] = system: SN12C renal
[49] = system: UO-31 renal
[50] = system: M14 melanoma
[51] = system: RPMI-8226 leukemia
[52] = system: CAKI-1 renal
[53] = system: SF-539 CNS
[54] = system: MALME-3M melanoma
[55] = system: IGROV1 ovarian
[56] = system: KM12 colon
[57] = system: NCI-H460 lung
[58] = system: HL-60(TB) leukemia

Measured: TGI

NS(=O)(=O)c1ccc(NC(=O)C2C(=O)C(=O)N(c3ccc(S(N)(=O)=O)cc3)C2=O)cc1 (stereo unspecified)
> 100 µM: [1] | [2] | [3] | [4] | [5] | [6] | [7] | [8] | [9] | [10] | [11] | [12] | [13] | [14] | [15] | [16] | [17] | [18] | [19] | [20] | [21] | [22] | [23] | [24] | [25] | [26] | [27] | [28] | [29] | [30] | [31] | [32] | [33] | [34] | [35] | [36] | [37] | [38] | [39] | [40] | [41] | [42] | [43] | [44] | [45] | [46] | [47] | [48] | [49] | [50] | [51] | [52] | [53] | [54] | [55]

CCCCCCCCCCCCCCCC(=O)OCCOCCOCCOCCOCCOC(=O)CCCCCCCCCCCCCCC
> 100 µM: [1] | [2] | [3] | [4] | [5] | [6] | [7] | [8] | [9] | [10] | [12] | [13] | [14] | [15] | [16] | [17] | [18] | [19] | [20] | [21] | [22] | [23] | [24] | [25] | [56] | [26] | [27] | [28] | [29] | [30] | [31] | [32] | [33] | [34] | [35] | [36] | [37] | [38] | [39] | [40] | [41] | [57] | [42] | [58] | [43] | [44] | [45] | [46] | [47] | [48] | [49] | [50] | [51] | [52] | [54] | [55]
